IC50 data for 13 molecules are collected here from patent US11739098B2 (BRISTOL-MYERS SQUIBB COMPANY, priority 2017, dated 2023).

Type in all cases: cell-based
For one assay, the target named is T1, human TLR7 (Homo sapiens, UniProt Q9NYK1).
T1 construct: host or cells: HEK-Blue cells (HEK293-derived reporter line)
T1 sequence (Q9NYK1 27-1049): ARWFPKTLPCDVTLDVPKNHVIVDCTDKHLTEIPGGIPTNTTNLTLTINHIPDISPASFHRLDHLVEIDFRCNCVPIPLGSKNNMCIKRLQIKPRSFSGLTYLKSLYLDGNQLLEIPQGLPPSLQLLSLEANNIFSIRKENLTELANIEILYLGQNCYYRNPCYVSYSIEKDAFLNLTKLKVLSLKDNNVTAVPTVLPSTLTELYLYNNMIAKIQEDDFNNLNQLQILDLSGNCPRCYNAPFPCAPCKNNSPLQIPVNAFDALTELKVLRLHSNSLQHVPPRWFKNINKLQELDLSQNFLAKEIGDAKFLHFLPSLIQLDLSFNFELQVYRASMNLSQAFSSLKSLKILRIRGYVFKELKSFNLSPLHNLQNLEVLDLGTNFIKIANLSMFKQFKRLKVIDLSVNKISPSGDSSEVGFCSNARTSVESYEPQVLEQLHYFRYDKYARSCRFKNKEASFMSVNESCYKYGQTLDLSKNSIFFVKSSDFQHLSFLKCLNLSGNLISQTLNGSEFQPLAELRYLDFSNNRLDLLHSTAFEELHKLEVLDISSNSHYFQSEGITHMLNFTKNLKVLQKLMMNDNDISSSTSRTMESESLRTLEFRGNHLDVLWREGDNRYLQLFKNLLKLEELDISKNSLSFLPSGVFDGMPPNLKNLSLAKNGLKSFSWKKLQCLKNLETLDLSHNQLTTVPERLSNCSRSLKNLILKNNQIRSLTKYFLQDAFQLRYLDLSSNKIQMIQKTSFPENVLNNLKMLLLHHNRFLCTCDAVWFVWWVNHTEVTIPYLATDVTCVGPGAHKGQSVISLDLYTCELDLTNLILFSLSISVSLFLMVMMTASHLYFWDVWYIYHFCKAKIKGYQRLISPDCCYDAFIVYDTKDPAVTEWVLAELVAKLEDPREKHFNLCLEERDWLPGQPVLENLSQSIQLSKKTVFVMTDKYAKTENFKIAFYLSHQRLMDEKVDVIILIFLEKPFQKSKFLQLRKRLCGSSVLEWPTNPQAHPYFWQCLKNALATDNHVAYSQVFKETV
Kind of assay: TLR7 inhibition reporter assay (HEK-Blue cells, SEAP reporter, gardiquimod stimulation). As to conditions: HEK-Blue cells overexpressing human TLR7, SEAP reporter, gardiquimod 7.5 μM. In outline:
(§1)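 HEK-Blue cells overexpressing the receptor, with NF-κB/AP-1-driven SEAP, were pre-treated 30 min at room temperature with compound (0.05 nM–50 μM), then stimulated with gardiquimod 7.5 μM (TLR7), R848 15.9 μM (TLR8) or ODN2006 5 nM (TLR9). SEAP was read after 22 h at 37 °C as percent inhibition.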
(A reporter such as luciferase makes a cellular process visible.)

Another assay addresses T2, human TLR9 (Homo sapiens, UniProt Q9NR96).
T2 construct: host or cells: HEK-Blue cells (HEK293-derived reporter line)
T2 sequence (Q9NR96 26-1032): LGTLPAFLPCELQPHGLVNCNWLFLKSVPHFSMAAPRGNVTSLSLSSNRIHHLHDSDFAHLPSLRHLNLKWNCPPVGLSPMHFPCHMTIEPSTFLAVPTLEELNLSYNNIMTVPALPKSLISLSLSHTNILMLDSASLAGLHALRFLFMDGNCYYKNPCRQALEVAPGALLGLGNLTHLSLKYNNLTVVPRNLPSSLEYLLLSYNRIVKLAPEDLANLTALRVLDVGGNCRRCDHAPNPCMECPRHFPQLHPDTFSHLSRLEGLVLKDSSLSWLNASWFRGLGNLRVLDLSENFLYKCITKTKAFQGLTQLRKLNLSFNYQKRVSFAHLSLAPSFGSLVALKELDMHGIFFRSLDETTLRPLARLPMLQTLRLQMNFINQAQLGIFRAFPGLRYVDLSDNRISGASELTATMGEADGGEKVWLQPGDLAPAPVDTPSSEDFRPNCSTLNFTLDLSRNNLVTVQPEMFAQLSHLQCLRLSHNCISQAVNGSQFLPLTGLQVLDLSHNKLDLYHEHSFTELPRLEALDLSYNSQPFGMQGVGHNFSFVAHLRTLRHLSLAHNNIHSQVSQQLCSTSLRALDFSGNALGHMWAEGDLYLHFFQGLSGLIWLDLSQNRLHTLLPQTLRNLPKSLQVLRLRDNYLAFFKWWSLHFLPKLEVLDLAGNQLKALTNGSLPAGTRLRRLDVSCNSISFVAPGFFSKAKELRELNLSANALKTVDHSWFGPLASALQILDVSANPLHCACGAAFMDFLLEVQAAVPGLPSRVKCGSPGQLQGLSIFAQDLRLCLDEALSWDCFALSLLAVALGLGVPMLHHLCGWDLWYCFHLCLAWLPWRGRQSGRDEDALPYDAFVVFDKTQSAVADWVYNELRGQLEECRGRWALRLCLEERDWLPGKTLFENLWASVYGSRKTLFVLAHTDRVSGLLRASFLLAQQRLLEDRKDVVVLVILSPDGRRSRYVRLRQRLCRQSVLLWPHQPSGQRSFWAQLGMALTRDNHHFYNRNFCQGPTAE
The assay can be described thus: TLR9 inhibition reporter assay (HEK-Blue cells, SEAP reporter, ODN2006 stimulation). As to conditions: HEK-Blue cells overexpressing human TLR9, SEAP reporter, ODN2006 5 nM. The gist of the method: as §1

In the next assay the target is T3, human TLR8 (Homo sapiens, UniProt Q9NR97).
T3 construct: host or cells: HEK-Blue cells (HEK293-derived reporter line)
T3 sequence (Q9NR97 27-1041): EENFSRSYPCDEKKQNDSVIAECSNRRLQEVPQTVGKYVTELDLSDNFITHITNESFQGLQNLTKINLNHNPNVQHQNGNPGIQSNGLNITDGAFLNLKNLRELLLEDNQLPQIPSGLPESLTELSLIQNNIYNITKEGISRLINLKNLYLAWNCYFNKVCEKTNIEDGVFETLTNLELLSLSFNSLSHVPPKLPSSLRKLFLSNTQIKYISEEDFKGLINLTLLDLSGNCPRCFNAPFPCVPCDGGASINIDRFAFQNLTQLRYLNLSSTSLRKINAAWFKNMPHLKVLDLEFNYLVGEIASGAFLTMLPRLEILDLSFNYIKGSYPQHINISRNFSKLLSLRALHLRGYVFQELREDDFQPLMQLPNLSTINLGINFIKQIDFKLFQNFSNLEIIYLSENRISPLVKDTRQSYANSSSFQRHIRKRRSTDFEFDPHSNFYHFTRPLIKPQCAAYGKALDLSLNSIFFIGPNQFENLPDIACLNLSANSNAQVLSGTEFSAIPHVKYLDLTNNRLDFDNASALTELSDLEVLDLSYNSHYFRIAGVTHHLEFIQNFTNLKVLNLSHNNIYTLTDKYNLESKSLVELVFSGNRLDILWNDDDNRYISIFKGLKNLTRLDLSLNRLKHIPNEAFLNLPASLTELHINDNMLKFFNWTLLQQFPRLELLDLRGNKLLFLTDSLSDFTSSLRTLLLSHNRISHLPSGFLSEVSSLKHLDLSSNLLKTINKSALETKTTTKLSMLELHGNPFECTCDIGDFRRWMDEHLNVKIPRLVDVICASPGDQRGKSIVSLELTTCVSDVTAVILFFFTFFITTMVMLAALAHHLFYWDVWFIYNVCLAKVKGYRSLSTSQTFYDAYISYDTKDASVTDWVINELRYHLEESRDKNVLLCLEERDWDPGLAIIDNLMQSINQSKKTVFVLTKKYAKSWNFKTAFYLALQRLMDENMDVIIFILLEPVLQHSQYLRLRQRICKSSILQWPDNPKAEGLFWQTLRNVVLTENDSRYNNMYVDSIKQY
The assay can be described thus: TLR8 inhibition reporter assay (HEK-Blue cells, SEAP reporter, R848 stimulation). The following applies: HEK-Blue cells overexpressing human TLR8, SEAP reporter, R848 15.9 μM. The gist of the method:
as §1

Turning to `Cc1ncc(CN2CCC(c3ccc4[nH]c(-c5ccnc6[nH]ncc56)c(C(C)C)c4c3)CC2)[nH]1` [Example 869, 4-(3-isopropyl-5-(1-((2-methyl-1H-imidazol-5-yl)methyl)piperidin-4-yl)-1H-indol-2-yl)-1H-pyrazolo[3,4-b]pyridine], the IC50 on human TLR7 was less than 100 nM; on human TLR9 it was 100 to 1000 nM; on human TLR8, less than 100 nM.

Take `COc1c(C)c(-c2[nH]c3ccc(C4CCN(CC(C)(C)O)CC4)cc3c2C(C)C)nn2ncnc12` [Example 748, 1-(4-(3-isopropyl-2-(8-methoxy-7-methyl-[1,2,4]triazolo[1,5-b]pyridazin-6-yl)-1H-indol-5-yl)piperidin-1-yl)-2-methylpropan-2-ol]: the half-inhibitory concentration (IC50) was less than 100 nM against human TLR7, 1000 to 50000 nM against human TLR9 and less than 100 nM on human TLR8.

For `CN1CC(C(=O)N2CCC(c3ccc4[nH]c(-c5ccc6nccn6c5)c(CC(F)F)c4c3)CC2)CC1=O` (stereo not drawn) [Example 644, 4-(4-(3-(2,2-difluoroethyl)-2-(imidazo[1,2-a]pyridin-6-yl)-1H-indol-5-yl)piperidine-1-carbonyl)-1-methylpyrrolidin-2-one], the IC50 against human TLR7 was 100 to 1000 nM; on human TLR9, more than 50000 nM; against human TLR8, 1000 to 50000 nM.

For the molecule `COc1cc(-c2[nH]c3ccc(C4CCN(C5COC5)CC4)cc3c2C(C)C)cc2ncnn12` [Example 710, 7-(3-isopropyl-5-(1-(oxetan-3-yl)piperidin-4-yl)-1H-indol-2-yl)-5-methoxy-[1,2,4]triazolo[1,5-a]pyridine], the half-maximal inhibitory concentration (IC50) against human TLR7 is less than 100 nM; against human TLR9, 1000 to 50000 nM; on human TLR8 it was less than 100 nM.

`CNC(=O)CN1CCC(c2ccc3[nH]c(-c4cc(Cl)c5ncccc5c4)c(C(C)C)c3c2)CC1` [Example 381, 2-(4-(2-(8-chloroquinolin-6-yl)-3-isopropyl-1H-indol-5-yl)piperidin-1-yl)-N-methylacetamide]: the IC50 against human TLR7 is less than 100 nM; at human TLR9, 1000 to 50000 nM; at human TLR8, 100 to 1000 nM.

Consider `CCN(CC)C(=O)C1CCCN(CC(=O)N2CCC(c3ccc4[nH]c(-c5ccnc6[nH]ncc56)c(C(C)C)c4c3)CC2)C1` (stereo not drawn) [Example 588, N,N-diethyl-1-(2-(4-(3-isopropyl-2-(1H-pyrazolo[3,4-b]pyridin-4-yl)-1H-indol-5-yl)piperidin-1-yl)-2-oxoethyl)piperidine-3-carboxamide], for which the concentration for half-maximal inhibition (IC50) was less than 100 nM against human TLR7, 100 to 1000 nM against human TLR9 and less than 100 nM on human TLR8.

Consider `CC(C)c1c(-c2ccnc3cccnc23)[nH]c2ccc(C3CCNCC3)cc12` [Example 22, 4-(3-isopropyl-5-(piperidin-4-yl)-1H-indol-2-yl)-1,5-naphthyridine], for which the half-inhibitory concentration (IC50) at human TLR7 is 100 to 1000 nM; at human TLR9, 1000 to 50000 nM; against human TLR8, less than 100 nM.

With `CC(C)c1c(-c2ccn3cnnc3c2)[nH]c2ccc(C3CCN(CC(=O)N(C)C)CC3)cc12` [Example 305, 2-(4-(2-([1,2,4]triazolo[4,3-a]pyridin-7-yl)-3-isopropyl-1H-indol-5-yl)piperidin-1-yl)-N,N-dimethylacetamide], the IC50 lay in the range of 100 to 1000 nM at human TLR7, 1000 to 50000 nM against human TLR9 and 100 to 1000 nM against human TLR8.

For the molecule `CC(C)c1c(-c2cn(C)c3ncccc23)[nH]c2ccc(C3CCN(CC(C)(C)O)CC3)cc12` [Example 750, 1-(4-(3-isopropyl-2-(1-methyl-1H-pyrrolo[2,3-b]pyridin-3-yl)-1H-indol-5-yl)piperidin-1-yl)-2-methylpropan-2-ol], the 50% inhibitory concentration (IC50) is less than 100 nM at human TLR7, 1000 to 50000 nM on human TLR9 and less than 100 nM against human TLR8.

Turning to `Cc1cc(-c2[nH]c3ccc(C4CCN(CC(=O)N(C)C)CC4)cc3c2C(C)C)cc2nccn12` [Example 354, 2-(4-(3-isopropyl-2-(5-methylimidazo[1,2-a]pyridin-7-yl)-1H-indol-5-yl)piperidin-1-yl)-N,N-dimethylacetamide], the half-inhibitory concentration (IC50) at human TLR7, on human TLR9 and on human TLR8 was 100 to 1000 nM in each case.

Consider `Cc1ncc(CN2CCC(c3ccc4[nH]c(-c5cn(C)c6ncccc56)c(C(C)C)c4c3)CC2)cn1` [Example 876, 3-(3-isopropyl-5-(1-((2-methylpyrimidin-5-yl)methyl)piperidin-4-yl)-1H-indol-2-yl)-1-methyl-1H-pyrrolo[2,3-b]pyridine], for which the results for the IC50 at human TLR7, against human TLR9 and against human TLR8 were less than 100 nM, 1000 to 50000 nM and less than 100 nM, respectively.

Turning to `CCc1c(-c2cnc3c(N)n[nH]c3c2)[nH]c2ccc(C3CCNCC3)cc12` [Example 240, 6-(3-ethyl-5-(piperidin-4-yl)-1H-indol-2-yl)-1H-pyrazolo[4,3-b]pyridin-3-amine], the 50% inhibitory concentration (IC50) on human TLR7, against human TLR9 and at human TLR8 was 1000 to 50000 nM in each case.

Turning to `CCc1c(-c2cnc3[nH]ncc3c2)[nH]c2ccc(C3CCNCC3)cc12` [Example 53, 5-(3-ethyl-5-(piperidin-4-yl)-1H-indol-2-yl)-1H-pyrazolo[3,4-b]pyridine], the IC50 is 100 to 1000 nM against human TLR7, 1000 to 50000 nM against human TLR9 and less than 100 nM against human TLR8.

By IC50 is commonly meant the midpoint of a concentration-inhibition curve.
